Experimental data reported in patent US8877163B2, “Cycloalkyl triamine pentacarboxylate as ligands for paramagnetic metal complexes” (Kaohsiung Medical University, priority 2006, dated 2014).
Where two headings read alike, the source gives them in different places.

Key:
[1] = Stability constants of the copper complex by potentiometric titration (BEST program); format: physicochemical
Excerpt: (§1) Presently, there are two ways for calculating the thermodynamic stability constant of a metal complex by the potentiometric titration. […] The second method is suitable for the metal complex whose disassociation rate is less than 25% at low pH (such as pH 2). Take the metal complex of the present invention for instance, since it is not able to form a complex with the ligand at a pH value around 2, the thermodynamic stability constant thereof must be calculated by the previous method. The equation for the thermodynamic stability constant is defined as follows: [formula] where M represents the metal ion, L represents the ligand, and ML represents the metal complex. […] The thermodynamic stability constants for the metal complexes with CB-TTDA are determined from the titration data with the FORTRAN computer program BEST as shown in Table 2 with the reported thermodynamic stability constants of TTDA and DTPA, which are respectively reported by Y M. Wang et al., Inorganic Chemistry, vol. 44, page 382, 2005 and by P. Caravan et al., Inorganic Chemistry, vol. 44, page 2170, 2001. The conditional stability constant (Kcond) specifies the degree of metal chelation at a given pH and is defined as follows: […] [formula] where LT is the total concentration of the uncomplexed ligand, which is defined by the following equation: […]

[2] = Stability constants of the gadolinium complex by potentiometric titration (BEST program); format: physicochemical
Excerpt: as §1

[3] = incubation with zinc (II) for three days; 20 MHz, 37.0 ± 0.1° C.; reported by S. Laurent et al; cited from earlier work
[4] = 20 MHz, 37.0 ± 0.1° C., cited from earlier work
[5] = cited from earlier work
human serum albumin = human serum albumin (Homo sapiens, UniProt P02768); settings: cited from earlier work; for relaxivity for the combination with human serum albumin: bound to human serum albumin
Sequence of human serum albumin (P02768 25-609): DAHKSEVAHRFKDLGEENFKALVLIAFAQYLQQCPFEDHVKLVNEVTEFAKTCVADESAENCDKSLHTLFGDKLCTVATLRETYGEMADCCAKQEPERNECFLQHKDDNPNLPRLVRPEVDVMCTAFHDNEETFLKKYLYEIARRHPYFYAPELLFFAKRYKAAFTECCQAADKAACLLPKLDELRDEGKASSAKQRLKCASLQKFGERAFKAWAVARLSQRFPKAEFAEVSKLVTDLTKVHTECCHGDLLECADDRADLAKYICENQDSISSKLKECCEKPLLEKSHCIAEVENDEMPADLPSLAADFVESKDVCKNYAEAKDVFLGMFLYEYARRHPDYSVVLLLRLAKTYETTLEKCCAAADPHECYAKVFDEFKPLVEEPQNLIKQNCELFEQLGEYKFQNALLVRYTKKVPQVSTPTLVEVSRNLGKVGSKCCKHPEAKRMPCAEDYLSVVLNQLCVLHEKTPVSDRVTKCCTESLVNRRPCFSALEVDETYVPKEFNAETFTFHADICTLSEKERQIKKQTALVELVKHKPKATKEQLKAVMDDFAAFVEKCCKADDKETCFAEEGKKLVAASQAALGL

[6] = Protonation constants by potentiometric titration (PKAS program); format: physicochemical; settings: for ΣpKa: sum of the four protonation constants
Method: Firstly, the ligands (HnL) are deprotoned (L^n−) by treating them with the alkaline solution. After that, a slow addition of the acidic solution for associating the deprotonated ligand with the protons (H^+) is performed, and thus protonated organic ligands are formed. The equation for the protonation constant is shown as follows:
Please refer to FIG. 2, which is a potentiometric titration curve for CB-TTDA (the ionic strength I=0.1 M Me4NCl and the temperature T=25.0±0.1° C.) measured by an automatic titrator system. The protonation constants for the CB-TTDA are determined from the titration data with the FORTRAN computer program PKAS as shown in Table 1.

[7] = Stability constants of the calcium complex by potentiometric titration (BEST program); format: physicochemical
Excerpt: as §1

[8] = Stability constants of the zinc complex by potentiometric titration (BEST program); format: physicochemical
Excerpt: as §1

[9] = Selectivity constant and modified selectivity constant of the gadolinium complex; format: physicochemical
Excerpt: The selectivity constant is used only for showing the difference between the gadolinium complex and other metal complexes. However, due to the coexistence of the zinc ion, the calcium ion and the copper ion in vivo, all the following factors, which are the pH value, the protonation constant for the ligand, the concentrations of the metal ions (Zn^2+, Ca^2+, Cu^2+) and the stability constants for Gd^3+, Zn^2+, Ca^2+ and Cu^2+ complexes should be considered for obtaining the selectivity constant with a new definition, called modified selectivity constant (Ksel′) and defined by the following equation: Ksel′=Ktherm(αH^−1+αCaL^−1+αCuL^−1+αZnL^−1)^−1, where αH^−1=1+K1^H[H^+]+K1^HK2^H [H^+]^++ . . .; αCaL^−1=1+KCaL[Ca^2+]; αCuL^−1=1+KCuL[Cu^2+]; αZnL^−1=1+KZnL[Zn^2+]; and thus the modified selectivity constant of the gadolinium complex at the biological pH (7.4) could be calculated by the mentioned equation (the value of the conditional stability constant is calculated previously, and the concentrations of the zinc, the calcium and the copper ions are 50 μM, […] and 1 μm, respectively).

[10] = reported values; cited from earlier work
[11] = I = 0.1 M Me4NCl, T = 25.0 ± 0.1° C.; reported values; cited from earlier work
[12] = I = 0.1 M Me4NCl, T = 25.0 ± 0.1° C.; reported values; cited from earlier work; remark: listed apart in the source
[13] = I = 0.1 M Me4NCl, T = 25.0 ± 0.1° C.; reported values; cited from earlier work; remark: listed apart in the source
[14] = I = 0.1 M Me4NCl, T = 25.0 ± 0.1° C.; reported values; cited from earlier work; remark: listed apart in the source
[15] = Dy (III)-induced 17O-NMR water shift (d.i.s.), number of inner space water molecules; format: physicochemical
Excerpt: From measuring the d.i.s. (Dy (III)-induced ^17O-NMR water shifts) of the ^17O nuclides in water induced by Dy (III) via ^17O-NMR and graphing the concentration of Dy (III) complexes with respect to the d.i.s., a linear relationship is found, as shown in the following equation: d.i.s.=qΔ[Dy(ligand)n(H2O)q/[H2O]
The slope is qΔ/[H2O] with q being the number of inner space water molecule. […] Because the Dy (III) hydrate is able to combine with 8 water molecules and is in direct proportion to the slope, the value of q (q=0.9) for [Dy(CB-TTDA)]^2− is obtained thereby.

[16] = after removal of the galactopyranoside by β-gal; cited from earlier work
[17] = I = 0.1 M Me4NCl, T = 25.0 ± 0.1° C.

O=C([O-])CN(CCN(CC(=O)[O-])CC1(CN(CC(=O)[O-])CC(=O)[O-])CCC1)CC(=O)[O-].[Cu+2] [[Cu(CB-TTDA)]^3−]
log KML [CuL]/[Cu][L] [1, 17]: 17.71

CNC[C@H](O)[C@@H](O)[C@H](O)[C@H](O)CO.CNC[C@H](O)[C@@H](O)[C@H](O)[C@H](O)CO.O=C([O-])CN(CCN(CC(=O)[O-])CC(=O)O)CCN(CC(=O)[O-])CC(=O)O.[Gd+3] [[Gd(DTPA)]^2−, gadopentetate dimeglumine]
calculated conditional stability constant of the gadolinium complex ([2]; pH = 7.4): 18.14 | R1^p (t = 3days)/R1^p (t = 0 days) [3]: 49.79% | relaxivity r1 ([4]; pH 7.6 ± 0.1, P. Caravan et al.): 3.89 ± 0.03 mM⁻¹ s⁻¹ | relaxivity ([5]; 20 MHz and 298 K): 3.89 mM⁻¹ s⁻¹ | relaxivity ([5]; Fulvio U. et al., 1995): 3.77 mM⁻¹ s⁻¹ | relaxivity for the combination with human serum albumin (human serum albumin): 33.0 mM⁻¹ s⁻¹

CC1(N(CC(=O)[O-])CC(=O)[O-])CN(CC(=O)[O-])CCN(CC(=O)[O-])C1.[Gd+3] [[Gd(AAZTA)]^−]
relaxivity ([5]; 20 MHz and 298 K): 7.1 mM⁻¹ s⁻¹ | relaxivity calculated by simulating the NMRD profile ([5]; τr increased to 30 ns): 100 mM⁻¹ s⁻¹

O=C([O-])CN(CCCN(CC(=O)[O-])CC(=O)[O-])CCN(CC(=O)[O-])CC(=O)[O-].[Gd+3] [[Gd(TTDA)]^2−]
calculated conditional stability constant of the gadolinium complex [2]: 14.25 | relaxivity r1 ([4]; pH 7.5 ± 0.1, Y. M. Wang et al.): 3.85 ± 0.03 mM⁻¹ s⁻¹

O=C(O)CN(CCCN(CC(=O)O)CC(=O)O)CCN(CC(=O)O)CC(=O)O [TTDA, 3,6,10-tri-(carboxymethyl)-3,6,10-triazadodecanedioic acid]
ΣpKa [6]: 27.44 | pGd [2]: 15.25 | pCa [7]: 6.28 | log KCaL (pH = 7.4) (conditional stability constant) [7]: 4.42 | pZn [8]: 12.86 | log KZnL (pH = 7.4) (conditional stability constant) [8]: 11.32 | pCu [1]: 13.06 | log KCuL (pH = 7.4) (conditional stability constant) [1]: 12.06 | log K(Gd/Ca) (selectivity constant) [9]: 9.83 | log K(Gd/Cu) (selectivity constant) [9]: 2.19 | log K(Gd/Zn) (selectivity constant) [9]: 2.93 | log Kn^H [H2L]/[HL][H] [10]: 8.92 | log Kn^H [H3L]/[H2L][H] [10]: 5.12 | log Kn^H [H4L]/[H3L][H] [10]: 2.80 | log Kn^H [HL]/[L][H] [10]: 10.60 | log KML [GdL]/[Gd][L] (thermodynamic stability constant) [11]: 18.96 | log KCaHL [12]: 8.20 | log KML [CaL]/[Ca][L] [12]: 9.13 | log KML [ZnL]/[Zn][L] [13]: 16.03 | log KZnHL [13]: 7.80 | log KCuHL [14]: 5.69 | log KML [CuL]/[Cu][L] [14]: 16.77

CNC[C@H](O)[C@@H](O)[C@H](O)[C@H](O)CO.CNC[C@H](O)[C@@H](O)[C@H](O)[C@H](O)CO.O=C([O-])CN(CCN(CC(=O)[O-])CC(=O)O)CCN(CC(=O)O)C(COCc1ccccc1)C(=O)[O-].[Gd+3] (stereo not shown) [[Gd(BOPTA)]^2−, gadobenate dimeglumine]
relaxivity ([5]; Fulvio U. et al., 1995): 4.39 mM⁻¹ s⁻¹

CNC(=O)CN(CCN(CCN(CC(=O)[O-])CC(=O)NC)CC(=O)[O-])CC(=O)[O-].[Gd+3] [[Gd(DTPA-BMA)], bis-methylamide gadodiamide injection]
R1^p (t = 3days)/R1^p (t = 0 days) [3]: 9%

O=C([O-])CN(CCN(CC(=O)[O-])CC1(CN(CC(=O)[O-])CC(=O)[O-])CCC1)CC(=O)[O-].[Dy+3] [[Dy(CB-TTDA)]^2−]
slope of d.i.s. versus concentration of Dy (III) complex ([15]; 17O-NMR): −48.2 ppm/mM | q, number of inner space water molecule ([15]; from slope relative to Dy (III) hydrate with 8 water molecules): 0.9

O=C(O)CN(CCN(CC(=O)O)CC(=O)O)CCN(CC(=O)O)CC(=O)O [DTPA]
ΣpKa [6]: 26.01 | pGd [2]: 19.14 | pCa [7]: 7.46 | log KCaL (pH = 7.4) (conditional stability constant) [7]: 6.43 | pZn [8]: 15.39 | log KZnL (pH = 7.4) (conditional stability constant) [8]: 14.38 | pCu [1]: 18.06 | log KCuL (pH = 7.4) (conditional stability constant) [1]: 17.00 | log K(Gd/Ca) (selectivity constant) [9]: 11.71 | log K(Gd/Cu) (selectivity constant) [9]: 1.08 | log K(Gd/Zn) (selectivity constant) [9]: 3.76 | log Kn^H [H2L]/[HL][H] [10]: 8.60 | log Kn^H [H3L]/[H2L][H] [10]: 4.28 | log Kn^H [H4L]/[H3L][H] [10]: 2.64 | log Kn^H [HL]/[L][H] [10]: 10.49 | log KML [GdL]/[Gd][L] (thermodynamic stability constant) [11]: 22.46 | log KCaHL [12]: 6.11 | log KML [CaL]/[Ca][L] [12]: 10.75 | log KML [ZnL]/[Zn][L] [13]: 18.70 | log KZnHL [13]: 5.60 | log KCuHL [14]: 4.81 | log KML [CuL]/[Cu][L] [14]: 21.38

O=C([O-])CN(CC(=O)[O-])CC1(CN(CCN(CC(=O)O)CC(=O)O)CC(=O)O)CCC1.[Zn+2] [[Zn(CB-TTDA)]^3−]
log KML [ZnL]/[Zn][L] [8, 17]: 16.06

O=C([O-])CN1CCN(CCO[C@@H]2O[C@H](CO)[C@H](O)[C@H](O)[C@H]2O)CCN(CC(=O)[O-])CCN(CC(=O)[O-])CC1.[Gd+3] [Egad, 4,7,10-tri(aceticacid)-1-(2-β-galactopyranosylethoxy)-1,4,7,10-tetraazacyclododecane gadolinium (III)]
number of inner space water molecules after hydrolysis by β-galactosidase [16]: 1.2

O=C([O-])CN(CCN(CC(=O)[O-])C[C@H](COP(=O)([O-])OC1CCC(c2ccccc2)(c2ccccc2)CC1)N(CC(=O)[O-])CC(=O)[O-])CC(=O)[O-].[Gd+3].[H+].[H+].[H+] [MS-325]
bound relaxivity r1^b (human serum albumin; bound to HSA): 47.0 mM⁻¹ s⁻¹ | relaxivity for the combination with human serum albumin (human serum albumin): 47.0 mM⁻¹ s⁻¹ | binding constant with HSA, KA (human serum albumin): 3.0±0.2×10^4 M^−1

O=C([O-])CN(CC(=O)[O-])CC1(CN(CCN(CC(=O)O)CC(=O)O)CC(=O)O)CCC1.[Ca+2] [[Ca(CB-TTDA)]^3−]
log KML [CaL]/[Ca][L] [7, 17]: 9.52

O=C(O)CN(CCN(CC(=O)O)CC1(CN(CC(=O)O)CC(=O)O)CCC1)CC(=O)O [CB-TTDA, 6-carboxymethyl-3-{{[1-(N,N-dicarboxymethyl)-2-aminomethyl]-cyclobut-1-yl}-methyl}-3,6-diazaoctanedioic acid]
log Kn^H [H4L]/[H3L][H] [6, 17]: 3.11(0.04) | log Kn^H [HL]/[L][H] [6, 17]: 11.08(0.03) | ΣpKa [6]: 28.59 | log KML [GdL]/[Gd][L] (thermodynamic stability constant) [2]: 20.28(0.03) | pGd [2]: 15.82 | pCa [7]: 4.09 | log KCaHL [7, 17]: 6.24(0.02) | log KML [CaL]/[Ca][L] [7, 17]: 9.52(0.02) | log KCaL (pH = 7.4) (conditional stability constant) [7]: 4.06 | pZn [8]: 12.41 | log KML [ZnL]/[Zn][L] [8, 17]: 16.06(0.03) | log KZnHL [8, 17]: 8.13(0.04) | log KZnL (pH = 7.4) (conditional stability constant) [8]: 10.60 | pCu [1]: 13.26 | log KCuHL [1, 17]: 5.29(0.03) | log KML [CuL]/[Cu][L] [1, 17]: 17.71(0.02) | log KCuL (pH = 7.4) (conditional stability constant) [1]: 12.25 | log K(Gd/Ca) (selectivity constant) [9]: 11.76 | log K(Gd/Cu) (selectivity constant) [9]: 2.57 | log K(Gd/Zn) (selectivity constant) [9]: 4.22
